Data from the NIST ThermoML archive (doi:10.1021/je030231w).
“And” between values parts separate entries of the source, which are not always exact repeats. Equal entries are not always repeated. ± gives the expanded uncertainty stated by the source.

Legend:
[1] = Crystal, Calculated from knudsen effusion weight loss
[2] = mn = molality of the nth substance listed, in mol/kg; conditions: 298 K, 101.3 kPa, Liquid

SMILES	vapor or sublimation pressure ([1]; 373.02 K)	vapor or sublimation pressure ([1]; 374.94 K)	vapor or sublimation pressure ([1]; 378.75 K)	vapor or sublimation pressure ([1]; 380.67 K)	vapor or sublimation pressure ([1]; 382.54 K)	vapor or sublimation pressure ([1]; 384.45 K)	vapor or sublimation pressure ([1]; 386.35 K)	vapor or sublimation pressure ([1]; 388.25 K)	vapor or sublimation pressure ([1]; 390.15 K)	vapor or sublimation pressure ([1]; 392.01 K)	mass density ([2]; m1 = 0.01034)	mass density ([2]; m1 = 0.01092)	mass density ([2]; m1 = 0.01101)	mass density ([2]; m1 = 0.01122)	mass density ([2]; m1 = 0.01187)	mass density ([2]; m1 = 0.01292)
O=c1[nH]cc(C(F)(F)F)c(=O)[nH]1 [5-(trifluoromethyl)uracil]	1.187e-05 ± 6e-07 kPa and 1.168e-05 ± 5.9e-07 kPa	1.376e-05 ± 7e-07 kPa	2.012e-05 ± 1e-06 kPa	2.417e-05 ± 1.2e-06 kPa	2.882e-05 ± 1.5e-06 kPa	3.348e-05 ± 1.7e-06 kPa	3.983e-05 ± 2e-06 kPa	4.61e-05 ± 2.3e-06 kPa	5.586e-05 ± 2.8e-06 kPa	6.401e-05 ± 3.2e-06 kPa and 6.45e-05 ± 3.2e-06 kPa	–	–	–	–	–	–
O=c1[nH]cc(C(F)(F)F)c(=O)[nH]1 [5-(trifluoromethyl)uracil] + O	–	–	–	–	–	–	–	–	–	–	997.88 ± 0.2 kg/m3	997.938 ± 0.2 kg/m3	997.946 ± 0.19 kg/m3	997.96 ± 0.19 kg/m3	998.017 ± 0.19 kg/m3	998.089 ± 0.18 kg/m3
